Starred links: 1 amine or outer side, 2 acyl side, 3 side chain; linkers in the order of their positions; H or OH if unused. Non-standard residues stand in square brackets, D forms with d. Residues, ends and D or L forms follow the SMILES beside them. *: point of attachment. Benzenesulfonyl(4-Cl,3-CF3) = O=S(=O)(c1ccc(Cl)c(C(F)(F)F)c1)*; γGlu = O=C(O)[C@H](CCC(=O)[*:2])N[*:1]; 4Pal = N[C@@H](Cc1ccncc1)C(=O)O; Tle = CC(C)(C)[C@H](N)C(=O)O; β3hP = O=C(O)C[C@@H]1CCCN1
Assays:
[1] = Chemical stability of the compound in pH 7.4 aqueous solution assessed as degradation by measuring residual rate incubated for 24 hrs at 65 degC by HPLC analysis; assay type: physicochemical; details: read-out: Activity
[2] = Chemical stability of the compound in pH 4 aqueous solution assessed as degradation by measuring residual rate incubated for 24 hrs at 65 degC by HPLC analysis; assay type: physicochemical; details: read-out: Activity
[3] = Lipophilicity, logD of compound at pH 7.4; assay type: physicochemical; details: buffer
[4] = Total clearance in cynomolgus monkey at 0.25 mg/kg, iv pretreated with rifampicin 20 mg/kg, po 1 hr before; assay type: ADME, organism-based, Macaca fascicularis; details: in vivo
[5] = Volume of distribution at steady state in cynomolgus monkey at 0.25 mg/kg, iv; assay type: ADME, organism-based, Macaca fascicularis; details: in vivo, read-out: Vdss
[6] = Urinary excretion rate in rat at 1 mg/kg, iv; assay type: ADME, organism-based; details: urine, read-out: Activity
[7] = Volume of distribution at steady state in cynomolgus monkey at 0.25 mg/kg, iv pretreated with rifampicin 20 mg/kg, po 1 hr before; assay type: ADME, organism-based, Macaca fascicularis; details: in vivo, read-out: Vdss
[8] = Stability of the compound in rat liver S9 fraction; assay type: ADME, subcellular
[9] = Total clearance in cynomolgus monkey at 0.25 mg/kg, iv; assay type: ADME, organism-based, Macaca fascicularis; details: in vivo
[10] = Total clearance in CL57BL/6J mouse at 0.25 mg/kg, iv measured upto 24 hrs by LCMS/MS analysis; assay type: ADME, organism-based; details: in vivo
[11] = Volume of distribution at steady state in CL57BL/6J mouse at 0.25 mg/kg, iv measured upto 24 hrs by LCMS/MS analysis; assay type: ADME, organism-based; details: in vivo, read-out: Vdss

Row | Compound | remaining at 24 h [1] [%] | remaining at 24 h [2] [%] | further results
1 | CC(C)(C)[C@H](NC(=O)[C@H](Cc1ccncc1)NC(=O)CNC(=O)CC[C@H](NS(=O)(=O)c1ccc(Cl)c(C(F)(F)F)c1)C(=O)O)C(=O)Nc1ccc(C(=O)NCC2(N)CCNCC2)cc1 | 86.4 | 95.6 | –
2 | CC(C)c1nc(N(C)S(C)(=O)=O)nc(-c2ccc(F)cc2)c1/C=C/[C@@H](O)C[C@@H](O)CC(=O)O [ROSUVASTATIN] | – | – | logD [3]: -1.9
3 | CN(C)CCCC[C@H](NC(=O)CCN)C(=O)N1CCN(C(=O)c2ccc(NC(=O)[C@@H](NC(=O)[C@H](Cc3ccncc3)NC(=O)CNC(=O)CC[C@H](NS(=O)(=O)c3ccc(Cl)c(C(F)(F)F)c3)C(=O)O)C(C)(C)C)cc2)CC1 | 93.7 | 100 | –
4 | CC(C)(C)[C@H](NC(=O)[C@H](Cc1ccncc1)NC(=O)CNC(=O)CC[C@H](NS(=O)(=O)c1ccc(Cl)c(C(F)(F)F)c1)C(=O)O)C(=O)N1CCC[C@H]1CC(N)=O ({Benzenesulfonyl(4-Cl,3-CF3)-γGlu}-G[4Pal][Tle][β3hP]-NH2) | – | – | clearance [4]: 9.12 mL/min/kg; Vd [5]: 0.283 L/kg; dose excreted [6]: 5%; Vd [7]: 0.208 L/kg; Stability [8]: < 10%; clearance [9]: 24.5 mL/min/kg
5 | CC(C)(C)[C@H](NC(=O)[C@H](Cc1ccncc1)NC(=O)CNC(=O)CC[C@H](NS(=O)(=O)c1ccc(Cl)c(C(F)(F)F)c1)C(=O)O)C(=O)Nc1ccc(C(=O)N2CCC(C(=O)N[C@H](CCCNC(=N)N)C(=O)NCCN)CC2)cc1 | 88.7 | 98.8 | –
6 | CC(C)(C)[C@H](NC(=O)[C@H](Cc1ccncc1)NC(=O)CNC(=O)CC[C@H](NS(=O)(=O)c1ccc(Cl)c(C(F)(F)F)c1)C(=O)O)C(=O)Nc1ccc(C(=O)N2CCN(C(=O)[C@@H](N)CCCN)CC2)cc1 | 58.7 | 88.6 | clearance [10]: 41.3 mL/min/kg; Vd [11]: 0.185 L/kg
7 | CC(C)(C)[C@H](NC(=O)[C@H](Cc1ccncc1)NC(=O)CNC(=O)CC[C@H](NS(=O)(=O)c1ccc(Cl)c(C(F)(F)F)c1)C(=O)O)C(=O)Nc1ccc(C(=O)N2CCC(C(=O)N[C@H](CCCCN)C(=O)NCCN)CC2)cc1 | 90.5 | 99.6 | –
8 | COc1ccccc1Oc1c(NS(=O)(=O)c2ccc(C(C)(C)C)cc2)nc(-c2ncccn2)nc1OCCO [BOSENTAN] | – | – | logD [3]: 2.4
9 | CC(C)(C)[C@H](NC(=O)[C@H](Cc1ccncc1)NC(=O)CNC(=O)CC[C@H](NS(=O)(=O)c1ccc(Cl)c(C(F)(F)F)c1)C(=O)O)C(=O)Nc1ccc(C(=O)O)cc1 | – | – | clearance [10]: 200 mL/min/kg; Vd [11]: 2.48 L/kg
10 | CC(C)(C)[C@H](NC(=O)[C@H](Cc1ccncc1)NC(=O)CNC(=O)CC[C@H](NS(=O)(=O)c1ccc(Cl)c(C(F)(F)F)c1)C(=O)O)C(=O)Nc1ccc(C(=O)N2CCC(C(=O)N[C@H](CCCCN)C(=O)N3C[C@@H](N)C[C@H]3C(N)=O)CC2)cc1 | 96.2 | 97 | –

Source: ChEMBL document CHEMBL5537178, “Discovery of TP0628103: A Highly Potent and Selective MMP-7 Inhibitor with Reduced OATP-Mediated Clearance Designed by Shifting Isoelectric Points” (J Med Chem, 2024)
